Experimental data as given in US20200247855A1, “THERAPY AND DIAGNOSTICS” (OXFORD UNIVERSITY INNOVATION LIMITED, priority 2017, published 2020).
No end group written: not given here.

Biological target: T1, CCL8 (Homo sapiens, UniProt P80075)
T1 construct: SUMO (in-house protein only) (cleaved yes); made in house; host or cells: Escherichia coli RosettaGami 2 (DE3)
T1 sequence (P80075 24-99): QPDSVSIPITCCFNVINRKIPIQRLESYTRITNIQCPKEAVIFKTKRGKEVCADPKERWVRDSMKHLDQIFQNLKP
Test: Fluorescence polarisation (anisotropy) assay
Type: binding
Conditions: fluorescence polarisation displacement assay

For EDEDYEDFFKPVTAYF-NH2 [BK1.1], the “Displacement of FITC-labelled peptide from CCL8 by unlabelled peptide” value was “indicate its binding” and the “Displacement of FITC-labelled peptide from CCL8 by unlabelled peptide” value (listed as P672_PEP) was “able to displace labelled peptide bound to chemokine”.
